Read-outs that look alike come from different tables or passages of the source. Where a SMILES comes first, the peptide text is derived from it.
Assays:
[1] = system: human iPSC-CM (iCell Cardiomyocytes); test: Dose-response cell viability (CellTiter-Fluor) in iPSC-derived cardiomyocytes, maximum acceptable viability exposure; type: cell-based
Experimental: Metabolomic data was acquired to identify non-cytotoxic exposure levels and identify biomarkers of cardiotoxicity from a dose-response experiment using spent medium of iPSC-CM treated with 53 of the compounds in the training set. Briefly, human iPSC-CM (iCell® Cardiomyocytes, cat #R1007, Cellular Dynamics International) were exposed to eight concentrations of each training set compound. Spent media was collected for LC-MS analysis and cell viability was assessed with the CellTiter-Fluor Cell Viability Assay (Promega). Spent media samples were prepared and analyzed using the methods developed in Specific Aim 1. The spent media samples from iPSC-CM treated with 10 representative cardiotoxic and non-cardiotoxic compounds were analyzed with all four LC-MS methods to rank biological significant secretome features by predictive capacity. […]
The goal of the concentration-response phase of biomarker identification was to identify non-cytotoxic exposure levels that change iPSC-CM metabolism. The method included modeling feature response, calculating maximum acceptable viability (MAVE), determining response at Cmax, and MAVE, reviewing the top 4 responding features, and selecting the highest tested exposure with 90% viability.

[2] = cited from earlier work
[3] = system: human iPSC-CM (iCell Cardiomyocytes2); test: Spent-media metabolomics (LC-MS) cardiotoxicity prediction models, blinded test set; conditions: functional vs general/structural cardiotoxicants, at the Exposure (μM) listed per compound in Table 3
[4] = highest exposure tested with ≥90% viability, iPSC-CM, eight concentrations

| Compound | MAVE (Maximum Acceptable Viability Exposure) ([1]; human) [µM] | Cmax Total ([2]; therapeutic total Cmax) [nM] | MAVE (Maximum Acceptable Viability Exposure) [1, 4] [µM] | Functional Model Prediction [3] | Cmax Total ([2]; in vivo) [nM] |
| --- | --- | --- | --- | --- | --- |
| Nc1nc2c(ncn2COCCO)c(=O)[nH]1 [Acyclovir] | 100 | 6700 |  |  |  |
| CN(C)CCC=C1c2ccccc2CCc2ccccc21 [Amitriptyline] | 1 | 950 |  |  |  |
| CC1(C)S[C@@H]2[C@H](NC(=O)[C@H](N)c3ccc(O)cc3)C(=O)N2[C@H]1C(=O)O [Amoxicillin] | 100 | 17000 |  |  |  |
| C[C@@H]1[C@H](O)[C@@H](C)/C=C/C=C/C=C/C=C/C=C/C=C/C=C/[C@H](O[C@@H]2O[C@H](C)[C@@H](O)[C@H](N)[C@@H]2O)C[C@@H]2O[C@](O)(C[C@@H](O)C[C@@H](O)[C@H](O)CC[C@@H](O)C[C@@H](O)CC(=O)O[C@H]1C)C[C@H](O)[C@H]2C(=O)O [Amphotericin B] |  | 89800 | 3 |  |  |
| O=C1CN2Cc3c(ccc(Cl)c3Cl)N=C2N1 [Anagrelide] | 30 | 60 |  |  |  |
| O=C1O[C@H]([C@@H](O)CO)C(O)=C1O [Ascorbic Acid] | 100 | 36000 |  |  |  |
| COC(=O)[C@H](Cc1ccccc1)NC(=O)[C@@H](N)CC(=O)O [Aspartame] (H-Asp-Phe-OMe) | 100 | 1000 |  |  |  |
| COc1ccc(CCN2CCC(Nc3nc4ccccc4n3Cc3ccc(F)cc3)CC2)cc1 [Astemizole] | 3 | 8 |  |  |  |
| O=C(O)c1ccccc1 [Benzoic Acid] | 100 | 36000 |  |  |  |
| O=C(O)CCCC[C@@H]1SC[C@@H]2NC(=O)N[C@@H]21 [Biotin] | 100 | 10 |  |  |  |
| CC(C)C[C@H](NC(=O)[C@H](Cc1ccccc1)NC(=O)c1cnccn1)B(O)O [Bortezomib] | 0.1 | 300 |  |  |  |
| O=C(O)COCCN1CCN(C(c2ccccc2)c2ccc(Cl)cc2)CC1 (stereo not shown) [Cetirizine] |  |  |  | − |  |
| CCN(CC)CCCC(C)Nc1ccnc2cc(Cl)ccc12 (stereo not shown) [Chloroquine] | 3 | 960 |  |  |  |
| COc1cc(N)c(Cl)cc1C(=O)NC1CCN(CCCOc2ccc(F)cc2)CC1OC (stereo not shown) [Cisapride] | 100 | 180 |  |  |  |
| O=C(O)CC(O)(CC(=O)O)C(=O)O [Citric Acid] | 100 | 128000 |  |  |  |
| CN1CCN(C2=Nc3cc(Cl)ccc3Nc3ccccc32)CC1 [Clozapine] | 10 | 950 |  |  |  |
| Cc1nc(Nc2ncc(C(=O)Nc3c(C)cccc3Cl)s2)cc(N2CCN(CCO)CC2)n1 [Dasatinib] | 10 | 720 |  |  |  |
| COc1cccc2c1C(=O)c1c(O)c3c(c(O)c1C2=O)C[C@@](O)(C(C)=O)C[C@@H]3O[C@H]1C[C@H](N)[C@H](O)[C@H](C)O1 [Daunorubicin] | 0.1 | 89000 |  |  |  |
| CCN[C@@H](C)Cc1cccc(C(F)(F)F)c1 [Dexfenfluramine] | 30 |  |  |  | 400 |

| Compound | MAVE (Maximum Acceptable Viability Exposure) ([1]; human) [µM] | Cmax Total ([2]; therapeutic total Cmax) [nM] | MAVE (Maximum Acceptable Viability Exposure) [1, 4] [µM] | Functional Model Prediction [3] | Cmax Total ([2]; in vivo) [nM] |
| --- | --- | --- | --- | --- | --- |
| CCN1/C(=C/C=C/C=C/c2sc3ccccc3[n+]2CC)Sc2ccccc21 [Dithiazanine Iodide] | 0.1 | 100 |  |  |  |
| CN(CCOc1ccc(NS(C)(=O)=O)cc1)CCc1ccc(NS(C)(=O)=O)cc1 [Dofetilide] | 100 | 8 |  |  |  |
| COc1cccc2c1C(=O)c1c(O)c3c(c(O)c1C2=O)C[C@@](O)(C(=O)CO)C[C@@H]3O[C@H]1C[C@H](N)[C@H](O)[C@H](C)O1 [Doxorubicin] | 0.1 | 15300 |  |  |  |
| COc1ccc(C(=O)Nc2ccccc2CCC2CCCCN2C)cc1 (stereo not shown) [Encainide] | 100 | 710 |  |  |  |
| C#Cc1cccc(Nc2ncnc3cc(OCCOC)c(OCCOC)cc23)c1 [Erlotinib] | 3 | 3800 |  |  |  |
| O=c1[nH]cc(F)c(=O)[nH]1 [Fluorouracil] | 100 | 4600 |  |  |  |
| CCCCCCc1ccc(O)cc1O [Hexylresorcinol] | 30 | 1000 |  |  |  |
| CC(=O)[C@]1(O)Cc2c(O)c3c(c(O)c2[C@@H](O[C@H]2C[C@H](N)[C@H](O)[C@H](C)O2)C1)C(=O)c1ccccc1C3=O [Idarubicin] | 0.1 | 120 |  |  |  |
| Cc1ccc(NC(=O)c2ccc(CN3CCN(C)CC3)cc2)cc1Nc1nccc(-c2cccnc2)n1 [Imatinib] | 3 |  |  |  |  |
| CC(C)NCC(O)c1ccc(O)c(O)c1 (stereo not shown) [Isoproterenol] | 100 | 10 |  |  |  |
| CS(=O)(=O)CCNCc1ccc(-c2ccc3ncnc(Nc4ccc(OCc5cccc(F)c5)c(Cl)c4)c3c2)o1 [Lapatinib] | 10 | 4180 |  |  |  |
| CC(C)C[C@H](N)C(=O)O [Leucine] | 100 |  |  |  |  |
| CCOC(=O)N1CCC(=C2c3ccc(Cl)cc3CCc3cccnc32)CC1 [Loratadine] |  |  |  | − |  |
| Cc1occc(=O)c1O [Maltol] | 100 | 30000 |  |  |  |
| CN(C)CCN(Cc1cccs1)c1ccccn1 [Methapyrilene] | 100 | 15300 |  |  |  |
| COC(=O)c1ccc(O)cc1 [Methylparaben] | 100 | 230 |  |  |  |
| O=C1c2c(O)ccc(O)c2C(=O)c2c(NCCNCCO)ccc(NCCNCCO)c21 [Mitoxantrone] | 1 |  |  |  |  |
| C[C@@H]1C/C=C/C=C/C=C/C=C/[C@H](O[C@@H]2O[C@H](C)[C@@H](O)[C@H](N)[C@@H]2O)C[C@@H]2O[C@](O)(C[C@@H](O)C[C@H]3O[C@@H]3/C=C/C(=O)O1)C[C@H](O)[C@H]2C(=O)O [Natamycin] | 30 |  |  |  |  |
| CNCCC=C1c2ccccc2CCc2ccccc21 [Nortriptyline] | 1 | 570 |  |  |  |

| Compound | MAVE (Maximum Acceptable Viability Exposure) ([1]; human) [µM] | Cmax Total ([2]; therapeutic total Cmax) [nM] | MAVE (Maximum Acceptable Viability Exposure) [1, 4] [µM] | Functional Model Prediction [3] | Cmax Total ([2]; in vivo) [nM] |
| --- | --- | --- | --- | --- | --- |
| CC(=O)O[C@H]1C(=O)[C@@]2(C)[C@H]([C@H](OC(=O)c3ccccc3)[C@]3(O)C[C@H](OC(=O)[C@H](O)[C@@H](NC(=O)c4ccccc4)c4ccccc4)C(C)=C1C3(C)C)[C@]1(OC(C)=O)CO[C@@H]1C[C@@H]2O [Paclitaxel] | 0.03 |  |  |  |  |
| CCCN1C[C@H](CSC)C[C@@H]2c3cccc4[nH]cc(c34)C[C@H]21 [Pergolide] | 30 | 3 |  |  |  |
| CCCOC(=O)c1cc(O)c(O)c(O)c1 [Propyl Gallate] | 30 | 3000 |  |  |  |
| CNC(=C[N+](=O)[O-])NCCSCc1ccc(CN(C)C)o1 [Ranitidine] | 100 | 1700 |  |  |  |
| CS(=O)(=O)c1ccc(C2=C(c3ccccc3)C(=O)OC2)cc1 [Rofecoxib] | 100 | 1700 |  |  |  |
| CN(CCOc1ccc(CC2SC(=O)NC2=O)cc1)c1ccccn1 (stereo not shown) [Rosiglitazone] |  |  |  | − |  |
| O=C1NCCN1CCN1CCC(c2cn(-c3ccc(F)cc3)c3ccc(Cl)cc23)CC1 [Sertindole] | 0.3 | 320 |  |  |  |
| CNC(=O)c1cc(Oc2ccc(NC(=O)Nc3ccc(Cl)c(C(F)(F)F)c3)cc2)ccn1 [Sorafenib] | 3 |  |  |  |  |
| OC[C@@H](O)[C@@H](O)[C@H](O)[C@@H](O)CO [Sorbitol] | 100 | 3900 |  |  |  |
| CCN(CC)CCNC(=O)c1c(C)[nH]c(/C=C2\C(=O)Nc3ccc(F)cc32)c1C [Sunitinib] | 1 | 250 |  |  |  |
| O=C(O)C(O)C(O)C(=O)O (stereo not shown) [Tartaric Acid] | 100 |  |  |  |  |
| CCCCCNC(=N)N/N=C/c1c[nH]c2ccc(OC)cc12 [Tegaserod] | 3 | 80 |  |  |  |
| CC(C)(C)c1ccc(C(O)CCCN2CCC(C(O)(c3ccccc3)c3ccccc3)CC2)cc1 (stereo not shown) [Terfenadine] | 3 | 300 |  |  |  |
| c1ccc2[nH]c(-c3cscn3)nc2c1 [Thiabendazole] | 100 | 30800 |  |  |  |
| CSc1ccc2c(c1)N(CCC1CCCCN1C)c1ccccc1S2 (stereo not shown) [Thioridazine] | 1 |  |  |  |  |
| Cc1onc(-c2ccccc2)c1-c1ccc(S(N)(=O)=O)cc1 [Valdecoxib] | 100 | 510 |  |  |  |
| COc1cc2c(Nc3ccc(Br)cc3F)ncnc2cc1OCC1CCN(C)CC1 [Vandetanib] | 1 | 3300 |  |  |  |
| Arsenic Trioxide |  | 12100 | 10 |  |  |
| Phenylphenol |  | 90 | 100 |  |  |

From patent publication US20250264459A1, “IN VITRO ASSAY TO PREDICT CARDIOTOXICITY” (Stemina Biomarker Discovery, Inc., priority 2018, published 2025)
